In brackets after ≈: the same amount, converted by molar mass. Like-named read-outs stand apart in the source and are kept apart here.
How the values were obtained:
[1] = system: P. aeruginosa; experiment: Determination of MIC; format: cell-based, Pseudomonas aeruginosa; conditions: for MIC: Pseudomonas aeruginosa
Procedure: (§1) Minimal inhibitory concentrations (MICs) of purified compounds and commercially available standards were assessed against S. aureus, C. albicans, P. aeruginosa, K. pneumoniae, E. coli, ESBL K. pneumoniae, ESBL E. coli and the two MRSA strains (B337919 and B335466). Stock solutions of 5 × 10^6 μg/l of p-hydroxybenzaldehyde, and phenyllactic acid were prepared using water. Stock solutions of 1 × 10^8 μg/l indole-3-carboxylic acid, PAA and indole-3-acetic acid were prepared using methanol and diluted with water (working solution of 5 × 10^6 μg/l). Stocks of 1 × 10^6 μg/l of cFP and cPM were dissolved in water. […] Methanol and water were used as control.

[2] = system: C. albicans; experiment: Determination of MIC; format: cell-based, Candida albicans; conditions: for MIC: Candida albicans
Procedure: as §1

[3] = system: HepG2 cells; experiment: XTT assay, metabolic active cells; format: cell-based, human
Procedure: (§2) In parallel the % of metabolic cells was measured using the XTT [2,3-Bis-(2-methoxy-4-nitro-5-sulfophenyl)-2H-tetra zolium-5-carboxanilide] assay (Thermo Scientific). Briefly, after treatment with the fungal extract or the different compounds cells were incubated with XTT and phenanzine methosulfate (Thermo Scientific) for 2 h. Absorbance was measured at 450 nm and % of metabolic active cells was calculated versus the control sample (media). As controls we incubated the cells without fungal cultures or compound, and with VPA alone.

[4] = system: Caco2 cells; experiment: XTT assay, metabolic active cells; format: cell-based, human; conditions: for % of metabolic active Caco2 cells: XTT
Procedure: as §2

[5] = system: S. aureus; experiment: Determination of MIC; format: cell-based, Staphylococcus aureus; conditions: for MIC: Staphylococcus aureus
Procedure: as §1

[6] = system: ESBL E. coli; experiment: Determination of MIC; format: cell-based, Escherichia coli; conditions: for MIC: Escherichia coli
Procedure: as §1

[7] = system: E. coli; experiment: Determination of MIC; format: cell-based, Escherichia coli; conditions: for MIC: Escherichia coli
Procedure: as §1

[8] = system: human hepatocytic (HepG2) cells; experiment: Cytotoxicity assay, lactate dehydrogenase release; format: cell-based; conditions: for % of living HepG2 cells: 24 h, LDH
Procedure: (§3) Cytotoxicity of the fungal extract and the identified compounds was determined measuring lactate dehydrogenase release using human intestinal epithelial (Caco2) and human hepatocytic (HepG2) cells. […] Cells were seeded into 96-well plates (5 × 10^4 cells per well) and incubated until a confluent cell layer had developed. After discarding of the media cells were incubated with 50 μl of media and 50 μl of fungal extract or compound (final concentration: PAA 2 × 10^6 μg/l, 4FP 2 × 10^6 μg/l, ICA 2 × 10^6 μg/l, IAA 2 × 10^5 μg/l, PLA 2 × 10^6 μg/l, cPM 2 × 10^6μg/l and cFP 2 × 10^6 μg/l) for 24 h at 37°C. […] LDH release was measured according to the manufacturer’s protocol (Sigma–Aldrich, USA).

[9] = system: human intestinal epithelial (Caco2) cells; experiment: Cytotoxicity assay, lactate dehydrogenase release; format: cell-based; conditions: for dead cells: at the determined MIC concentrations, Caco2; for % of living Caco2 cells: 24 h, LDH
Procedure: as §3

[10] = system: ESBL K. pneumoniae; experiment: Determination of MIC; format: cell-based, Klebsiella pneumoniae; conditions: for MIC: Klebsiella pneumoniae
Procedure: as §1

[11] = system: K. pneumoniae; experiment: Determination of MIC; format: cell-based, Klebsiella pneumoniae; conditions: for MIC: Klebsiella pneumoniae
Procedure: as §1

[12] = system: MRSA Staphylococcus (S.) aureus B337919; experiment: Determination of MIC; format: cell-based
Procedure: as §1

[13] = system: MRSA Staphylococcus (S.) aureus B335466; experiment: Determination of MIC; format: cell-based
Procedure: as §1

[14] = system: Caco2 and HepG2 cells; format: cell-based; conditions: at the determined MIC concentrations; range over compounds and cell lines
Procedure: as §3

[15] = system: acetylation of histone H3 K9 and K14; experiment: Histone posttranslational modifications by Western blot; format: cell-based, Doratomyces microsporus; conditions: VPA-treated D. microsporus cultures, 24, 48, 72 h
Procedure: Mycelia from the D. microsporus cultures were harvested after 24, 48, and 72 h by filtration and frozen in liquid nitrogen. Histones were extracted under acidic conditions as described by [Honda and Selker (2008)]. Samples were suspended in Laemmli’s SDS sample buffer and quantified with Pierce BCA Protein Assay (Thermo Scientific). Fifteen microgram of purified histones were separated on 15% SDS-PAGE gel and subsequently transferred to nitrocellulose membrane (GE Healthcare) by electroblotting. Histone H3 acetylation (H3Ac) was detected with primary antibody specific to H3Ac (Millipore, 06-599). As a loading control histone H3 C-terminus was detected with anti H3 C-terminus antibody (Abcam, 1791). The primary antibodies were identified with anti- rabbit (Sigma–Aldrich, A0545) horseradish peroxidase (HRP) conjugated secondary antibody. Chemiluminescence was detected with Clarity^TM ECL Western Substrate and ChemiDoc^TM XRS (Bio- Rad).

[16] = system: ESBL E. coli strain; experiment: Ampicillin in combination; format: cell-based, Escherichia coli; conditions: ampicillin combined with PAA, cPM or cFP
Procedure: (§4) Furthermore we studied the ability of PAA, cPM and cFP to increase antimicrobial activity of ampicillin against both ESBL and MRSA strains. The combination of cPM (100 mg/l) with ampicillin decreased the MIC value from 100 to 10 mg/l against the MRSA strain B335466 (Figure 5C).

[17] = system: ESBL K. pneumoniae strain; experiment: Ampicillin in combination; format: cell-based, Klebsiella pneumoniae; conditions: ampicillin combined with PAA, cPM or cFP
Procedure: as §4

[18] = system: MRSA strain B335466; experiment: Ampicillin MIC alone and in combination; format: cell-based; conditions: Staphylococcus aureus
Procedure: as §4

[19] = system: MRSA strain B337919; experiment: Ampicillin MIC alone and in combination; format: cell-based; conditions: Staphylococcus aureus
Procedure: as §4

[20] = system: Bacillus subtilis, S. aureus and Micrococcus luteus; parameters: method as in Jayatilake et al., 1996; Thomas et al., 2010; conditions: ref Jayatilake et al., 1996; Thomas et al., 2010; cited from earlier work
[21] = system: higher fungi; parameters: method as in Strom et al., 2002; conditions: ref Strom et al., 2002; cited from earlier work
[22] = parameters: method as in Rodloff et al., 2008; conditions: ref Rodloff et al., 2008; cited from earlier work
[23] = ESBL K. pneumoniae, read-out: MIC

Compound	MIC [1]	% of metabolic active HepG2 cells ([3]; compound 2mg/ml)	% of metabolic active Caco2 cells ([4]; compound 2mg/ml)	MIC ([5]; S. aureus, read-out: MIC)	MIC ([6]; ESBL E. coli, read-out: MIC)	MIC ([7]; E. coli, read-out: MIC)	% of living HepG2 cells ([8]; compound 2mg/ml)	% of living Caco2 cells ([9]; compound 2mg/ml)	MIC [10, 23]	MIC ([11]; K. pneumoniae, read-out: MIC)	MIC ([12]; MRSA 337, read-out: MIC)	MIC ([13]; MRSA 335, read-out: MIC)	dead cells [14]	further results
O=Cc1ccc(O)cc1 [4FP, p-hydroxybenzaldehyde]	2500 mg/L (≈ 20.5 mM)	57.33%	32.06%	2000 mg/L (≈ 16.4 mM)	2500 mg/L (≈ 20.5 mM)	2500 mg/L (≈ 20.5 mM)	7.86%	25.94%	2500 mg/L (≈ 20.5 mM)	2500 mg/L (≈ 20.5 mM)	2500 mg/L (≈ 20.5 mM)	2500 mg/L (≈ 20.5 mM)	–	MIC ([2]; C. albicans, read-out: MIC): 1000 mg/L (≈ 8.19 mM); metabolic active cells ([4]; human): 57.3%; dead cells [9]: 25.9%
O=C(O)Cc1c[nH]c2ccccc12 [IAA, indole-3-acetic acid]	2000 mg/L (≈ 11.4 mM)	–	–	400 mg/L (≈ 2.28 mM)	1750 mg/L (≈ 9.99 mM)	1750 mg/L (≈ 9.99 mM)	–	–	2000 mg/L (≈ 11.4 mM)	400 mg/L (≈ 2.28 mM)	–	–	–	MIC ([2]; C. albicans, read-out: MIC): 400 mg/L (≈ 2.28 mM); % of metabolic active HepG2 cells ([3]; compound 0.2mg/ml): 108.28%; % of metabolic active Caco2 cells ([4]; compound 0.2mg/ml): 103.64%; % of living HepG2 cells ([8]; compound 0.2mg/ml): 7.27 ± 1.77%; % of living Caco2 cells ([9]; compound 0.2mg/ml): 8.61%; MIC ([12]; MRSA 337): 200 mg/L (≈ 1.14 mM); MIC ([12]; MRSA strain B337919, read-out: MIC): 200 mg/L (≈ 1.14 mM); MIC ([13]; MRSA 335): 400 mg/L (≈ 2.28 mM); MIC ([13]; MRSA strain B335466, read-out: MIC): 400 mg/L (≈ 2.28 mM)
O=C(O)c1c[nH]c2ccccc12 [ICA, indole-3-carboxylic acid]	2000 mg/L (≈ 12.4 mM)	122.3%	97.59%	2000 mg/L (≈ 12.4 mM)	1000 mg/L (≈ 6.21 mM)	1000 mg/L (≈ 6.21 mM)	4.86%	8.36%	2000 mg/L (≈ 12.4 mM)	2000 mg/L (≈ 12.4 mM)	2000 mg/L (≈ 12.4 mM)	2000 mg/L (≈ 12.4 mM)	3.99–8.61%	–
O=C(O)Cc1ccccc1 [PAA, phenylacetic acid]	–	122.9%	113.54%	–	–	–	6.99%	6.53%	–	–	–	–	3.99–8.61%	MIC [2]: 2500 mg/L (≈ 18.4 mM); MIC [5]: 2000 mg/L (≈ 14.7 mM); MIC [6]: 2000 mg/L (≈ 14.7 mM); MIC [7]: 2000 mg/L (≈ 14.7 mM); MIC [10]: 2500 mg/L (≈ 18.4 mM); MIC [11]: 2500 mg/L (≈ 18.4 mM); MIC [12]: 2000 mg/L (≈ 14.7 mM); MIC [13]: 2000 mg/L (≈ 14.7 mM)
O=C(O)C(O)Cc1ccccc1 (stereo not drawn) [PLA, phenyllactic acid]	5000 mg/L (≈ 30.1 mM)	66.01%	41.48%	2000 mg/L (≈ 12 mM)	5000 mg/L (≈ 30.1 mM)	2500 mg/L (≈ 15 mM)	54.63%	19.65%	5000 mg/L (≈ 30.1 mM)	2500 mg/L (≈ 15 mM)	2000 mg/L (≈ 12 mM)	2000 mg/L (≈ 12 mM)	–	dead cells ([8]; at the determined MIC concentrations, HepG2): 54.63%; dead cells [9]: 19.7%
CCCC(CCC)C(=O)O [VPA, valproic acid]	–	–	–	–	–	–	–	–	–	–	–	–	–	acetylation of the N-terminal lysines of histone 3 compared to the untreated control culture [15]: could not detect any significant increase in acetylation
CC1(C)S[C@@H]2[C@H](NC(=O)[C@H](N)c3ccccc3)C(=O)N2[C@H]1C(=O)O [ampicillin]	–	–	–	–	–	–	–	–	–	–	–	–	–	synergistic or additive effect [16]: No synergistic or additive effect; synergistic or additive effect [17]: No synergistic or additive effect; MIC ([18]; ampicillin alone): 100 mg/L; MIC ([18]; combined with PAA (1 g/l)): 50 mg/L; MIC ([18]; combined with cPM (100 mg/l)): 10 mg/L; MIC ([19]; ampicillin alone): 100 mg/L; MIC ([19]; combined with cPM (2 g/l)): 50 mg/L
O=C1NC(Cc2ccccc2)C(=O)N2CCCC12 [cFP, cyclo-(L-phenylalanine-L-proline)]	–	116.63%	106.66%	–	–	–	5.11%	4.28%	–	–	–	–	3.99–8.61%	Inhibitory concentration ([1]; lowest concentration at which the inhibitory effect was detectable): 5 g/L; antimicrobial activity [20]: no antimicrobial activity; Inhibitory concentration ([2]; lowest concentration at which the inhibitory effect was detectable, C. albicans): 2.5 g/L; Inhibitory concentration ([5]; lowest concentration at which the inhibitory effect was detectable, S. aureus): 2 g/L; MIC [21]: 20000 mg/L (≈ 81.9 mM); Inhibitory concentration ([6]; lowest concentration at which the inhibitory effect was detectable, ESBL E. coli): 5 g/L; Inhibitory concentration ([7]; lowest concentration at which the inhibitory effect was detectable, E. coli): 5 g/L; Inhibitory concentration ([10]; lowest concentration at which the inhibitory effect was detectable, ESBL K. pneumoniae): 3 g/L; Inhibitory concentration ([11]; lowest concentration at which the inhibitory effect was detectable, K. pneumoniae): 3 g/L; Inhibitory concentration ([12]; lowest concentration at which the inhibitory effect was detectable, MRSA 337): 2 g/L; Inhibitory concentration ([13]; lowest concentration at which the inhibitory effect was detectable, MRSA 335): 2 g/L
C[C@H]1COc2c(N3CCN(C)CC3)c(F)cc3c(=O)c(C(=O)O)cn1c23 [levofloxacin]	–	–	–	–	–	–	–	–	–	–	–	–	–	accepted MIC values for antibiotics in clinical use [22]: 0.003 mg/L
co-trimoxazole	–	–	–	–	–	–	–	–	–	–	–	–	–	accepted MIC values for antibiotics in clinical use [22]: 100 mg/L
